Experimental findings from ChEMBL document CHEMBL6127107, “Oleanolic acid derivatives against drug-resistant bacteria and fungi by multi-targets to avoid drug resistance” (Eur J Med Chem, 2024) are described below.

Holding throughout (type): functional
The test system of test [1] is Staphylococcus aureus. In words: Antimicrobial activity against methicillin-resistant Staphylococcus aureus 003.
A further test has as its system Enterococcus faecalis. In words: Antimicrobial activity against vancomycin resistant Enterococcus faecalis ATCC 51299.
In test [2] the test system is Staphylococcus aureus. In words: Antimicrobial activity against Staphylococcus aureus 31.
A further test has as its system Candida albicans. In words: Antimicrobial activity against fluconazole-resistant Candida albicans.
The test system of test [3] is Staphylococcus aureus. In words: Antimicrobial activity against methicillin-resistant Staphylococcus aureus 011.
Another test concerns Escherichia coli. In words: Antimicrobial activity against Escherichia coli.
The subject of a further test is Pseudomonas aeruginosa. Briefly: Antimicrobial activity against Pseudomonas aeruginosa.
In test [4] the test system is Staphylococcus aureus. Briefly: Antimicrobial activity against Staphylococcus aureus 29.
The subject of test [5] is Staphylococcus aureus. In words: Antimicrobial activity against Staphylococcus aureus 10.

≈ marks a conversion by molar mass, not a printed value.

Regarding `C[C@@H]1CC[C@]2(C(=O)O)CC[C@]3(C)C(=CC[C@@H]4[C@@]5(C)CC[C@H](O)[C@@](C)(CO)[C@@H]5CC[C@]43C)[C@@H]2[C@]1(C)O` [ROTUNDIC ACID], the MIC amounted to 128 µg/mL (≈ 262 µM) with Staphylococcus aureus [1] and 256 µg/mL (≈ 524 µM) in the test on Enterococcus faecalis.
For the molecule `CC(=O)O[C@H]1CC[C@]2(C)[C@H]3CC=C4[C@@H]5CC(C)(C)CC[C@]5(C(=O)N5CCCCC5)CC[C@@]4(C)[C@]3(C)CC[C@H]2C1(C)C`, the MIC with Staphylococcus aureus [1], in the test with Staphylococcus aureus [2], against Candida albicans, with Staphylococcus aureus [3], against Escherichia coli and against Pseudomonas aeruginosa was greater than 64 µg/mL in each case. For the same molecule, the MIC against Staphylococcus aureus [4], against Staphylococcus aureus [5] and with Enterococcus faecalis was greater than 64 µg/mL each time.
For `CC1(C)C(OC(=O)c2ccccc2)CC[C@]2(C)C3=C([C@@H](O)C[C@@H]12)[C@@]1(C)CC[C@@]2(C)CC[C@@](C)(COC(=O)c4ccccc4)C[C@H]2[C@]1(C)CC3` (some centres not stated), the minimum inhibitory concentration (MIC) against Staphylococcus aureus [1] and with Enterococcus faecalis was greater than 512 µg/mL throughout.
With `CCCCCCC(=O)O[C@H]1CC[C@]2(C)[C@H]3CC=C4[C@@H]5CC(C)(C)CC[C@]5(C(=O)O)CC[C@@]4(C)[C@]3(C)CC[C@H]2C1(C)C`, the MIC in the test on Staphylococcus aureus [1], in the test on Staphylococcus aureus [2], against Candida albicans, against Staphylococcus aureus [3], against Escherichia coli and in the test on Pseudomonas aeruginosa was greater than 64 µg/mL each time. Also, the minimum inhibitory concentration (MIC) in the test with Staphylococcus aureus [4], against Staphylococcus aureus [5] and in the test on Enterococcus faecalis was greater than 64 µg/mL in each case.
Turning to `C[C@H]1[C@H](C)CC[C@]2(C(=O)O)CC[C@]3(C)C(=CC[C@@H]4[C@@]5(C)CC[C@H](O)C(C)(C)[C@@H]5CC[C@]43C)[C@H]12` [URSOLIC ACID], the minimal inhibitory concentration (MIC) in the test on Staphylococcus aureus [1] and in the test on Enterococcus faecalis was 64 µg/mL (≈ 140 µM) in each case.
In the case of `CCCCCCCCCCCCCOC(=O)[C@]12CCC(C)(C)C[C@H]1C1=CC[C@@H]3[C@@]4(C)CC[C@H](O)C(C)(C)[C@@H]4CC[C@@]3(C)[C@]1(C)CC2`, the MIC with Staphylococcus aureus [1], in the test on Staphylococcus aureus [2], in the test on Candida albicans, with Staphylococcus aureus [3], in the test on Escherichia coli and in the test with Pseudomonas aeruginosa was greater than 64 µg/mL throughout. Also, the MIC against Staphylococcus aureus [4], against Staphylococcus aureus [5] and in the test on Enterococcus faecalis was greater than 64 µg/mL each time.
As for `CCCCCCCCC(=O)O[C@H]1CC[C@]2(C)[C@H]3CC=C4[C@@H]5CC(C)(C)CC[C@]5(C(=O)O)CC[C@@]4(C)[C@]3(C)CC[C@H]2C1(C)C`, the MIC in the test with Staphylococcus aureus [1], against Staphylococcus aureus [2], against Candida albicans, in the test on Staphylococcus aureus [3], against Escherichia coli and with Pseudomonas aeruginosa was greater than 64 µg/mL each time. The MIC in the test with Staphylococcus aureus [4], in the test with Staphylococcus aureus [5] and in the test on Enterococcus faecalis was greater than 64 µg/mL each time.
For `COC(=O)[C@@]1(C)CC[C@]2(C(=O)OC3O[C@H](CO)[C@@H](O)[C@H](O)[C@H]3O)CC[C@]3(C)C(=CC[C@@H]4[C@@]5(C)CC[C@H](O[C@@H]6OC[C@@H](O)[C@H](O)[C@H]6O)[C@@](C)(CO)[C@@H]5CC[C@]43C)[C@@H]2C1` (some centres not stated), the MIC with Staphylococcus aureus [1] and against Enterococcus faecalis was greater than 512 µg/mL in each case.
In the case of `CCNCC(O)CO[C@H]1CC[C@]2(C)[C@H]3CC=C4[C@@H]5CC(C)(C)CC[C@]5(C(=O)O)CC[C@@]4(C)[C@]3(C)CC[C@H]2C1(C)C` (some centres not stated), the MIC against Staphylococcus aureus [1], with Staphylococcus aureus [2], with Candida albicans, in the test on Staphylococcus aureus [3], in the test with Escherichia coli and in the test on Pseudomonas aeruginosa was greater than 64 µg/mL each time. Also, the minimal inhibitory concentration (MIC) in the test with Staphylococcus aureus [4], in the test on Staphylococcus aureus [5] and in the test on Enterococcus faecalis was greater than 64 µg/mL each time.
For `C=C1CC[C@]2(C)CC[C@]3(C)[C@H](CC[C@@H]4[C@@]5(C)CC[C@H](OC(C)=O)C(C)(C)[C@@H]5CC[C@]43C)[C@H]2[C@@H]1C` [TARAXASTEROL ACETATE], the MIC in the test with Staphylococcus aureus [1] and against Enterococcus faecalis was greater than 512 µg/mL throughout.
As to `CC1(C)CC[C@]2(C(=O)O)CC[C@]3(C)C(=CC[C@@H]4[C@@]5(C)CCC(=O)C(C)(C)[C@@H]5CC[C@]43C)[C@@H]2C1` [OLEANONIC ACID], the minimum inhibitory concentration (MIC) against Staphylococcus aureus [1] came out at 256 µg/mL (≈ 563 µM); in the test with Enterococcus faecalis, 512 µg/mL (≈ 1130 µM).
Consider `C[C@H]1[C@H](C)CC[C@]2(C)CC[C@]3(C)C(=CC(=O)[C@@H]4[C@@]5(C)CC[C@@H](O)[C@](C)(C(=O)O)[C@@H]5CC[C@]43C)[C@H]12` [11-KETO BOSWELLIC ACID], for which the minimal inhibitory concentration (MIC) against Staphylococcus aureus [1] was determined as 16 µg/mL (≈ 34 µM); against Enterococcus faecalis, 32 µg/mL (≈ 68 µM).
Consider `CC1(C)CC[C@]2(C(=O)O)CC[C@]3(C)C(=CC[C@@H]4[C@@]5(C)CC[C@H](OCC(O)CNCc6ccoc6)C(C)(C)[C@@H]5CC[C@]43C)[C@@H]2C1` (some centres not stated), for which the MIC in the test with Staphylococcus aureus [1], with Staphylococcus aureus [2], in the test with Candida albicans, against Staphylococcus aureus [3], with Escherichia coli and in the test on Pseudomonas aeruginosa was greater than 64 µg/mL each time. Besides, the MIC with Staphylococcus aureus [4], against Staphylococcus aureus [5] and in the test on Enterococcus faecalis was greater than 64 µg/mL in each case.
With `C[C@H]1[C@H](C)CC[C@]2(C)CC[C@]3(C)C(=CC[C@@H]4[C@@]5(C)CC[C@H](O)C(C)(C)[C@@H]5CC[C@]43C)[C@H]12`, the MIC in the test on Staphylococcus aureus [1] and with Enterococcus faecalis was greater than 512 µg/mL in each case.
With `CCCCC(=O)O[C@H]1CC[C@]2(C)[C@H]3CC=C4[C@@H]5CC(C)(C)CC[C@]5(C(=O)O)CC[C@@]4(C)[C@]3(C)CC[C@H]2C1(C)C`, the MIC against Staphylococcus aureus [1], against Staphylococcus aureus [2], with Candida albicans, against Staphylococcus aureus [3], in the test with Escherichia coli and against Pseudomonas aeruginosa was greater than 64 µg/mL each time. In addition, the MIC in the test with Staphylococcus aureus [4], in the test with Staphylococcus aureus [5] and with Enterococcus faecalis was greater than 64 µg/mL throughout.
As to `CC1(C)CC[C@]2(C(=O)O)CC[C@]3(C)C(=CC[C@@H]4[C@@]5(C)CC[C@H](O[C@@H]6O[C@H](C(=O)O)[C@@H](O)[C@H](O[C@@H]7OC[C@@H](O)[C@H](O)[C@H]7O)[C@H]6O)C(C)(C)[C@@H]5CC[C@]43C)[C@@H]2C1`, the minimal inhibitory concentration (MIC) against Staphylococcus aureus [1] and in the test on Enterococcus faecalis was greater than 512 µg/mL each time.
Consider `CCC(=O)O[C@H]1CC[C@]2(C)[C@H]3CC=C4[C@@H]5CC(C)(C)CC[C@]5(C(=O)O)CC[C@@]4(C)[C@]3(C)CC[C@H]2C1(C)C`, for which the minimal inhibitory concentration (MIC) against Staphylococcus aureus [1], with Staphylococcus aureus [2], with Candida albicans, in the test with Staphylococcus aureus [3], against Escherichia coli and against Pseudomonas aeruginosa was greater than 64 µg/mL throughout. Moreover, the minimal inhibitory concentration (MIC) against Staphylococcus aureus [4], in the test with Staphylococcus aureus [5] and against Enterococcus faecalis was greater than 64 µg/mL each time.
`CN(C)CC(O)CO[C@H]1CC[C@]2(C)[C@H]3CC=C4[C@@H]5CC(C)(C)CC[C@]5(C(=O)O)CC[C@@]4(C)[C@]3(C)CC[C@H]2C1(C)C` (some centres not stated): the MIC with Staphylococcus aureus [1], in the test with Staphylococcus aureus [2], in the test on Candida albicans, with Staphylococcus aureus [3], against Escherichia coli and in the test with Pseudomonas aeruginosa was greater than 64 µg/mL in each case. Further, the MIC against Staphylococcus aureus [4], in the test on Staphylococcus aureus [5] and in the test with Enterococcus faecalis was greater than 64 µg/mL throughout.
Take `CC(=O)O[C@H]1CC[C@]2(C)[C@H]3CC=C4[C@@H]5CC(C)(C)CC[C@]5(C(=O)NCc5ccoc5)CC[C@@]4(C)[C@]3(C)CC[C@H]2C1(C)C`: the MIC in the test on Staphylococcus aureus [1], in the test with Staphylococcus aureus [2], against Candida albicans, in the test on Staphylococcus aureus [3], in the test with Escherichia coli and against Pseudomonas aeruginosa was greater than 64 µg/mL throughout. Also, the MIC against Staphylococcus aureus [4], in the test with Staphylococcus aureus [5] and against Enterococcus faecalis was greater than 64 µg/mL each time.
On to `CC1(C)CC[C@]2(C(=O)O)CC[C@]3(C)C(=CC[C@@H]4[C@@]5(CO)C[C@@H](O)[C@H](O)[C@@](C)(CO)[C@@H]5CC[C@]43C)[C@@H]2C1`, for which the minimal inhibitory concentration (MIC) against Staphylococcus aureus [1] and with Enterococcus faecalis was greater than 512 µg/mL in each case.
For the molecule `C[C@H]1[C@H](C)CC[C@]2(C(=O)O)CC[C@]3(C)C(=CC[C@@H]4[C@@]5(C)C[C@@H](O)[C@H](O)C(C)(C)[C@@H]5CC[C@]43C)[C@H]12` [COROSOLIC ACID], the MIC against Staphylococcus aureus [1] was found to be 16 µg/mL (≈ 33.8 µM); in the test with Enterococcus faecalis, 32 µg/mL (≈ 67.7 µM).
As to `C[C@H]1[C@H](C)CC[C@]2(C(=O)O)CC[C@]3(C)C(=CC[C@@H]4[C@@]5(C)CCC(=O)C(C)(C)[C@@H]5CC[C@]43C)[C@H]12` [URSONIC ACID], the MIC in the test on Staphylococcus aureus [1] was 128 µg/mL (≈ 282 µM); against Enterococcus faecalis it was 256 µg/mL (≈ 563 µM).
Regarding `C[C@H]1[C@H](C)CC[C@]2(C(=O)O)CC[C@]3(C)C(=CC[C@@H]4[C@@]5(C)C[C@@H](O)[C@H](O)[C@@](C)(CO)[C@@H]5CC[C@]43C)[C@H]12` [ASIATIC ACID], the minimum inhibitory concentration (MIC) in the test on Staphylococcus aureus [1] was determined as 16 µg/mL (≈ 32.7 µM); against Enterococcus faecalis, 32 µg/mL (≈ 65.5 µM).
As to `CC1(C)[C@@H](O[C@@H]2O[C@H](C(=O)O)[C@@H](O)[C@H](O[C@@H]3O[C@H](C(=O)O)[C@@H](O)[C@H](O)[C@H]3O)[C@H]2O)CC[C@]2(C)[C@H]3C(=O)C=C4[C@@H]5C[C@@](C)(C(=O)O)CC[C@]5(C)CC[C@@]4(C)[C@]3(C)CC[C@@H]12` [GLYCYRRHIZINIC ACID], the MIC against Staphylococcus aureus [1] and in the test on Enterococcus faecalis was greater than 512 µg/mL each time.
For `CC1(C)CC[C@]2(C(=O)O[C@@H]3O[C@H](CO)[C@H](O)[C@H](O)[C@H]3O)CC[C@]3(C)C(=CC[C@@H]4[C@@]5(C)CC[C@H](O[C@@H]6O[C@H](C(=O)O)[C@@H](O)[C@H](O)[C@H]6O)C(C)(C)[C@@H]5CC[C@]43C)[C@@H]2C1`, the minimum inhibitory concentration (MIC) in the test on Staphylococcus aureus [1] and against Enterococcus faecalis was greater than 512 µg/mL in each case.
For `C[C@H]1[C@H](C)CC[C@]2(C)CC[C@]3(C)C(=CC[C@@H]4[C@@]5(C)CC[C@@H](O)[C@](C)(C(=O)O)[C@@H]5CC[C@]43C)[C@H]12` [BOSWELLIC ACID], the MIC against Staphylococcus aureus [1] and against Enterococcus faecalis was 8 µg/mL (≈ 17.5 µM) throughout.
